Measurements taken from PubChem BioAssay AID1259407 (Chemical Carcinogenesis Research Information System (CCRIS), 2018).
The source made the active and inactive calls. No rule for the calls is given here.

System: CCRIS mutagenicity, Ames/micronucleus/aberration tests
Assay: CCRIS mutagenicity studies

`c1ccccc1` was tested, and the mutagenic call (Test System: AMES SALMONELLA TYPHIMURIUM, Strain/Indicator: TA100, Metabolic Activation: RAT, LIVER, S-9, PHENOBARBITAL, Method: PREINCUBATION) was “inactive; negative”, the mutagenic call (Test System: AMES SALMONELLA TYPHIMURIUM, Strain/Indicator: TA100, Metabolic Activation: RAT, LIVER, S-9, PHENOBARBITAL, Method: STANDARD PLATE) was “inactive; negative” and the mutagenic call (Test System: AMES SALMONELLA TYPHIMURIUM, Strain/Indicator: TA100, Metabolic Activation: RAT, LIVER, S-9, PYRAZOLE, Method: STANDARD PLATE) was “inactive; negative”. The mutagenic call (Test System: AMES SALMONELLA TYPHIMURIUM, Strain/Indicator: TA100, Metabolic Activation: S-9, Method: STANDARD PLATE) was “inactive; negative”, the mutagenic call (Test System: AMES SALMONELLA TYPHIMURIUM, Strain/Indicator: TA102, Metabolic Activation: NONE, Method: STANDARD PLATE) was “inactive; negative” and the mutagenic call (Test System: AMES SALMONELLA TYPHIMURIUM, Strain/Indicator: TA102, Metabolic Activation: RAT, LIVER, S-9, ETHANOL, Method: STANDARD PLATE) was “inactive; negative”. The mutagenic call (Test System: AMES SALMONELLA TYPHIMURIUM, Strain/Indicator: TA102, Metabolic Activation: RAT, LIVER, S-9, PYRAZOLE, Method: STANDARD PLATE) was “inactive; negative”, the mutagenic call (Test System: AMES SALMONELLA TYPHIMURIUM, Strain/Indicator: TA102, Metabolic Activation: S-9, Method: STANDARD PLATE) was “inactive; negative” and the mutagenic call (Test System: AMES SALMONELLA TYPHIMURIUM, Strain/Indicator: TA104, Metabolic Activation: RAT, LIVER, S-9, AROCLOR 1254, Method: DESICCATOR) was “inactive; negative”. The mutagenic call (Test System: AMES SALMONELLA TYPHIMURIUM, Strain/Indicator: TA1535, Metabolic Activation: HAMSTER LIVER S-9, AROCLOR 1254 (10 OR 30%), Method: PREINCUBATION) was “inactive; negative”, the mutagenic call (Test System: AMES SALMONELLA TYPHIMURIUM, Strain/Indicator: TA1535, Metabolic Activation: NONE, Method: DESICCATOR) was “inactive; negative” and the mutagenic call (Test System: AMES SALMONELLA TYPHIMURIUM, Strain/Indicator: TA1535, Metabolic Activation: NONE, Method: PREINCUBATION) was “inactive; negative”. The mutagenic call (Test System: AMES SALMONELLA TYPHIMURIUM, Strain/Indicator: TA1535, Metabolic Activation: NONE, Method: STANDARD PLATE) was “inactive; negative”, the mutagenic call (Test System: AMES SALMONELLA TYPHIMURIUM, Strain/Indicator: TA1535, Metabolic Activation: RAT LIVER S-9, AROCLOR 1254 (10 OR 30%), Method: PREINCUBATION) was “inactive; negative” and the mutagenic call (Test System: AMES SALMONELLA TYPHIMURIUM, Strain/Indicator: TA1535, Metabolic Activation: RAT, LIVER, S-9, AROCLOR 1254, Method: DESICCATOR) was “active; positive”. The mutagenic call (Test System: AMES SALMONELLA TYPHIMURIUM, Strain/Indicator: TA1535, Metabolic Activation: RAT, LIVER, S-9, AROCLOR 1254, Method: STANDARD PLATE) was “inactive; negative”, the mutagenic call (Test System: AMES SALMONELLA TYPHIMURIUM, Strain/Indicator: TA1535, Metabolic Activation: RAT, LIVER, S-9, PYRAZOLE, Method: STANDARD PLATE) was “inactive; negative” and the mutagenic call (Test System: AMES SALMONELLA TYPHIMURIUM, Strain/Indicator: TA1537, Metabolic Activation: NONE, Method: STANDARD PLATE) was “inactive; negative”. The mutagenic call (Test System: AMES SALMONELLA TYPHIMURIUM, Strain/Indicator: TA1537, Metabolic Activation: RAT, LIVER, S-9, AROCLOR 1254, Method: STANDARD PLATE) was “inactive; negative”, the mutagenic call (Test System: AMES SALMONELLA TYPHIMURIUM, Strain/Indicator: TA1537, Metabolic Activation: RAT, LIVER, S-9, PYRAZOLE, Method: STANDARD PLATE) was “inactive; negative” and the mutagenic call (Test System: AMES SALMONELLA TYPHIMURIUM, Strain/Indicator: TA1538, Metabolic Activation: NONE, Method: STANDARD PLATE) was “inactive; negative”. The mutagenic call (Test System: AMES SALMONELLA TYPHIMURIUM, Strain/Indicator: TA1538, Metabolic Activation: RAT, LIVER, S-9, AROCLOR 1254, Method: STANDARD PLATE) was “inactive; negative”, the mutagenic call (Test System: AMES SALMONELLA TYPHIMURIUM, Strain/Indicator: TM677/8-AZAGUANINE, Metabolic Activation: NONE, Method: PREINCUBATION) was “inactive; negative” and the mutagenic call (Test System: AMES SALMONELLA TYPHIMURIUM, Strain/Indicator: TM677/8-AZAGUANINE, Metabolic Activation: RAT, LIVER, S-9, PHENOBARBITAL, Method: PREINCUBATION) was “inactive; negative”. The mutagenic call (Test System: AMES SALMONELLA TYPHIMURIUM, Strain/Indicator: TM677, Metabolic Activation: NONE, Method: STANDARD PLATE) was “inactive; negative”, the mutagenic call (Test System: AMES SALMONELLA TYPHIMURIUM, Strain/Indicator: UTH8413, Metabolic Activation: NONE, Method: STANDARD PLATE) was “inactive; negative” and the mutagenic call (Test System: AMES SALMONELLA TYPHIMURIUM, Strain/Indicator: UTH8413, Metabolic Activation: RAT, LIVER, S-9, AROCLOR, Method: STANDARD PLATE) was “inactive; negative”. The mutagenic call (Test System: AMES SALMONELLA TYPHIMURIUM, Strain/Indicator: UTH8414, Metabolic Activation: NONE, Method: STANDARD PLATE) was “inactive; negative”, the mutagenic call (Test System: AMES SALMONELLA TYPHIMURIUM, Strain/Indicator: UTH8414, Metabolic Activation: RAT, LIVER, S-9, AROCLOR, Method: STANDARD PLATE) was “inactive; negative” and the mutagenic call (Test System: CHINESE HAMSTER OVARY, Strain/Indicator: CHO-K1-BH4 (HGPRT), Metabolic Activation: NONE, Method: SUSPENSION/PLATE) was “inactive; negative”. The mutagenic call (Test System: CHINESE HAMSTER OVARY, Strain/Indicator: CHO-K1-BH4 (HGPRT), Metabolic Activation: RAT, LIVER, S-9, AROCLOR, Method: SUSPENSION/PLATE) was “inactive; negative”, the mutagenic call (Test System: CHINESE HAMSTER OVARY, Strain/Indicator: CHO/6-THIOGUANINE, Metabolic Activation: HAMSTER EMBRYO CELL-MEDIATED) was “inactive; negative” and the mutagenic call (Test System: CHINESE HAMSTER OVARY, Strain/Indicator: CHO/6-THIOGUANINE, Metabolic Activation: NONE) was “inactive; negative”. The mutagenic call (Test System: CHINESE HAMSTER OVARY, Strain/Indicator: CHO/OUABAIN, Metabolic Activation: HAMSTER EMBRYO CELL-MEDIATED) was “inactive; negative”, the mutagenic call (Test System: CHINESE HAMSTER OVARY, Strain/Indicator: CHO/OUABAIN, Metabolic Activation: NONE) was “inactive; negative” and the mutagenic call (Test System: CHINESE HAMSTER V-79, Strain/Indicator: V-79 (HGPRT)/6-THIOGUANINE, Metabolic Activation: NONE) was “inactive; negative”. The mutagenic call (Test System: CHINESE HAMSTER V-79, Strain/Indicator: V-79 (HGPRT)/6-THIOGUANINE, Metabolic Activation: RAT, LIVER, S-9, PHENOBARBITAL AND BETA-NAPHTHOFLAVONE) was “inactive; negative”, the mutagenic call (Test System: CHINESE HAMSTER V-79, Strain/Indicator: V-79/6-THIOGUANINE, Metabolic Activation: RAT, LIVER, S-9, PHENOBARBITAL AND 5,6-BENZOFLAVONE, Method: REPLATING) was “inactive; negative” and the mutagenic call (Test System: MOUSE LYMPHOMA, Strain/Indicator: L5178Y (TK+/+)/OUABAIN, Metabolic Activation: RAT LIVER S-9, AROCLOR 1254, Method: SUSPENSION/PLATE) was “active; positive”. The mutagenic call (Test System: MOUSE LYMPHOMA, Strain/Indicator: L5178Y (TK+/TK-), Metabolic Activation: NONE, Method: MICROWELL) was “active; positive”, the mutagenic call (Test System: MOUSE LYMPHOMA, Strain/Indicator: L5178Y (TK+/TK-), Metabolic Activation: NONE, Method: SUSPENSION/PLATE) was “inactive; negative” and the mutagenic call (Test System: MOUSE LYMPHOMA, Strain/Indicator: L5178Y (TK+/TK-), Metabolic Activation: RAT, LIVER, S-9, AROCLOR 1254, Method: SUSPENSION/PLATE) was “active; positive”. For the same molecule, the mutagenic call (Test System: MOUSE LYMPHOMA, Strain/Indicator: L5178Y (TK+/TK-), Metabolic Activation: RAT, LIVER, S-9, Method: SUSPENSION/PLATE) was “inactive; negative”, the mutagenic call (Test System: MOUSE LYMPHOMA, Strain/Indicator: L5178Y (TK+/TK-), Metabolic Activation: S-9, Method: MICROWELL) was “active; positive” and the mutagenic call (Test System: MOUSE LYMPHOMA, Strain/Indicator: L5178Y(TK+/-)/TRIFLUOROTHYMIDINE, Metabolic Activation: RAT LIVER s-9, AROCLOR 1254, Method: SUSPENSION/PLATE) was “active; positive”. For the same molecule, the mutagenic call (Test System: UDS RAT HEPATOCYTES, Strain/Indicator: THY INCORP, Metabolic Activation: NONE, Method: LIQUID SCINTILLATION COUNTING) was “active; positive” and the mutagenic call (Test System: UDS SHE CELLS, Strain/Indicator: THY INCORP, Metabolic Activation: NONE, Method: LIQUID SCINTILLATION COUNTING) was “inactive; negative”.
